Measurements reported in the supplement of paper PMC10627819.

What was measured:
Assay in all cases: fitness (endpoint OD595 vs no drug) (fraction); higher = more growth
S. pneumoniae D39V = tested on: S. pneumoniae D39V
Method in brief: (§1)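 In 384-well plates at 37 °C, cultures began at OD595 0.01 in 30 µl, with 55 µl used for S. pneumoniae. OD595 readings every 30 min for 14 h were corrected by the first reading. Fitness divides the stationary-phase transition optical density by the robust mean of no-drug control wells. The result is capped at 1.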

S. aureus Newman = tested on: S. aureus Newman
Method in brief: as §1

S. aureus DSM 20231 = tested on: S. aureus DSM 20231
Method in brief: as §1
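Note: OD595 on entry to stationary phase over no-drug wells; at most 1.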

CO[C@@]12[C@H](COC(N)=O)C3=C(C(=O)C(C)=C(N)C3=O)N1C[C@@H]1N[C@@H]12 [Mitomycin C] + CN[C@H](CC(C)C)C(=O)N[C@H]1C(=O)N[C@@H](CC(N)=O)C(=O)N[C@H]2C(=O)N[C@H]3C(=O)N[C@H](C(=O)N[C@H](C(=O)O)c4cc(O)cc(O)c4-c4cc3ccc4O)[C@H](O)c3ccc(c(Cl)c3)Oc3cc2cc(c3O[C@@H]2O[C@H](CO)[C@@H](O)[C@H](O)[C@H]2O[C@H]2C[C@](C)(N)[C@H](O)[C@H](C)O2)Oc2ccc(cc2Cl)[C@H]1O [Vancomycin]
Details	fitness
S. aureus DSM 20231, first compound 0.0156 µg/mL, partner 0.1875 µg/mL	0.741
S. aureus DSM 20231, first compound 0.0156 µg/mL, partner 0.375 µg/mL	0.719
S. aureus DSM 20231, first compound 0.0156 µg/mL, partner 0.75 µg/mL	0.708
S. aureus DSM 20231, first compound 0.0312 µg/mL, partner 0.1875 µg/mL	0.705
S. aureus DSM 20231, first compound 0.0312 µg/mL, partner 0.375 µg/mL	0.762
S. aureus DSM 20231, first compound 0.0312 µg/mL, partner 0.75 µg/mL	0.751
S. aureus DSM 20231, first compound 0.0625 µg/mL, partner 0.1875 µg/mL	0.592
S. aureus DSM 20231, first compound 0.0625 µg/mL, partner 0.375 µg/mL	0.624
S. aureus DSM 20231, first compound 0.0625 µg/mL, partner 0.75 µg/mL	0.624
S. aureus Newman, first compound 0.0156 µg/mL, partner 0.1875 µg/mL	0.747
S. aureus Newman, first compound 0.0156 µg/mL, partner 0.375 µg/mL	0.708
S. aureus Newman, first compound 0.0156 µg/mL, partner 0.75 µg/mL	0.733
S. aureus Newman, first compound 0.0312 µg/mL, partner 0.1875 µg/mL	0.719
S. aureus Newman, first compound 0.0312 µg/mL, partner 0.375 µg/mL	0.684
S. aureus Newman, first compound 0.0312 µg/mL, partner 0.75 µg/mL	0.65
S. aureus Newman, first compound 0.0625 µg/mL, partner 0.1875 µg/mL	0.56
S. aureus Newman, first compound 0.0625 µg/mL, partner 0.375 µg/mL	0.415
S. aureus Newman, first compound 0.0625 µg/mL, partner 0.75 µg/mL	0.411
S. pneumoniae D39V, first compound 0.001075 µg/mL, partner 0.125 µg/mL	0.928
S. pneumoniae D39V, first compound 0.001075 µg/mL, partner 0.25 µg/mL	0.629
S. pneumoniae D39V, first compound 0.001075 µg/mL, partner 0.5 µg/mL	0.208
S. pneumoniae D39V, first compound 0.002 µg/mL, partner 0.03125 µg/mL	0.951
S. pneumoniae D39V, first compound 0.002 µg/mL, partner 0.0625 µg/mL	0.877
S. pneumoniae D39V, first compound 0.002 µg/mL, partner 0.125 µg/mL	0.745
S. pneumoniae D39V, first compound 0.00215 µg/mL, partner 0.125 µg/mL	0.869
S. pneumoniae D39V, first compound 0.00215 µg/mL, partner 0.25 µg/mL	0.68
S. pneumoniae D39V, first compound 0.00215 µg/mL, partner 0.5 µg/mL	0.202
S. pneumoniae D39V, first compound 0.004 µg/mL, partner 0.03125 µg/mL	0.846
S. pneumoniae D39V, first compound 0.004 µg/mL, partner 0.0625 µg/mL	0.836
S. pneumoniae D39V, first compound 0.004 µg/mL, partner 0.125 µg/mL	0.667
S. pneumoniae D39V, first compound 0.0043 µg/mL, partner 0.125 µg/mL	0.863
S. pneumoniae D39V, first compound 0.0043 µg/mL, partner 0.25 µg/mL	0.592
S. pneumoniae D39V, first compound 0.0043 µg/mL, partner 0.5 µg/mL	0.206
S. pneumoniae D39V, first compound 0.008 µg/mL, partner 0.03125 µg/mL	0.727
S. pneumoniae D39V, first compound 0.008 µg/mL, partner 0.0625 µg/mL	0.732
S. pneumoniae D39V, first compound 0.008 µg/mL, partner 0.125 µg/mL	0.629

CO[C@@]12[C@H](COC(N)=O)C3=C(C(=O)C(C)=C(N)C3=O)N1C[C@@H]1N[C@@H]12 [Mitomycin C] + COc1c(N2C[C@@H]3CCCN[C@@H]3C2)c(F)cc2c(=O)c(C(=O)O)cn(C3CC3)c12 [Moxifloxacin]
Details	fitness
S. aureus DSM 20231, first compound 0.0156 µg/mL, partner 0.0075 µg/mL	0.677
S. aureus DSM 20231, first compound 0.0156 µg/mL, partner 0.015 µg/mL	0.675
S. aureus DSM 20231, first compound 0.0156 µg/mL, partner 0.03 µg/mL	0.543
S. aureus DSM 20231, first compound 0.0312 µg/mL, partner 0.0075 µg/mL	0.703
S. aureus DSM 20231, first compound 0.0312 µg/mL, partner 0.015 µg/mL	0.624
S. aureus DSM 20231, first compound 0.0312 µg/mL, partner 0.03 µg/mL	0.506
S. aureus DSM 20231, first compound 0.0625 µg/mL, partner 0.0075 µg/mL	0.557
S. aureus DSM 20231, first compound 0.0625 µg/mL, partner 0.015 µg/mL	0.504
S. aureus DSM 20231, first compound 0.0625 µg/mL, partner 0.03 µg/mL	0.371
S. aureus Newman, first compound 0.0156 µg/mL, partner 0.0075 µg/mL	0.63
S. aureus Newman, first compound 0.0312 µg/mL, partner 0.0075 µg/mL	0.59
S. aureus Newman, first compound 0.0312 µg/mL, partner 0.03 µg/mL	0.0632
S. aureus Newman, first compound 0.0625 µg/mL, partner 0.0075 µg/mL	0.32
S. aureus Newman, first compound 0.0625 µg/mL, partner 0.03 µg/mL	0.0334
S. pneumoniae D39V, first compound 0.001075 µg/mL, partner 0.0037 µg/mL	0.878
S. pneumoniae D39V, first compound 0.001075 µg/mL, partner 0.0075 µg/mL	0.902
S. pneumoniae D39V, first compound 0.001075 µg/mL, partner 0.015 µg/mL	0.869
S. pneumoniae D39V, first compound 0.002 µg/mL, partner 0.005 µg/mL	0.895
S. pneumoniae D39V, first compound 0.002 µg/mL, partner 0.01 µg/mL	0.902
S. pneumoniae D39V, first compound 0.002 µg/mL, partner 0.02 µg/mL	0.769
S. pneumoniae D39V, first compound 0.00215 µg/mL, partner 0.0037 µg/mL	0.846
S. pneumoniae D39V, first compound 0.00215 µg/mL, partner 0.0075 µg/mL	0.805
S. pneumoniae D39V, first compound 0.00215 µg/mL, partner 0.015 µg/mL	0.813
S. pneumoniae D39V, first compound 0.004 µg/mL, partner 0.005 µg/mL	0.838
S. pneumoniae D39V, first compound 0.004 µg/mL, partner 0.01 µg/mL	0.807
S. pneumoniae D39V, first compound 0.004 µg/mL, partner 0.02 µg/mL	0.727
S. pneumoniae D39V, first compound 0.0043 µg/mL, partner 0.0037 µg/mL	0.665
S. pneumoniae D39V, first compound 0.0043 µg/mL, partner 0.0075 µg/mL	0.691
S. pneumoniae D39V, first compound 0.0043 µg/mL, partner 0.015 µg/mL	0.666
S. pneumoniae D39V, first compound 0.008 µg/mL, partner 0.005 µg/mL	0.673
S. pneumoniae D39V, first compound 0.008 µg/mL, partner 0.01 µg/mL	0.72
S. pneumoniae D39V, first compound 0.008 µg/mL, partner 0.02 µg/mL	0.637

fitness, S. aureus DSM 20231, one replicate
Details	first compound 0.0156 µg/mL	first compound 0.0312 µg/mL	first compound 0.0625 µg/mL
partner 0.06 µg/mL	0.674	0.603	0.512
partner 0.12 µg/mL	0.413	0.302	0.198

CO[C@@]12[C@H](COC(N)=O)C3=C(C(=O)C(C)=C(N)C3=O)N1C[C@@H]1N[C@@H]12 [Mitomycin C] + COc1ccc(C[C@H](N)C(=O)N[C@H]2[C@@H](O)[C@H](n3cnc4c(N(C)C)ncnc43)O[C@@H]2CO)cc1 [Puromycin]
fitness
Details	first compound 0.001075 µg/mL	first compound 0.00215 µg/mL	first compound 0.0043 µg/mL	first compound 0.0156 µg/mL	first compound 0.0312 µg/mL	first compound 0.0625 µg/mL
S. aureus DSM 20231, partner 0.39 µg/mL	–	–	–	0.759	0.758	0.593
S. aureus DSM 20231, partner 0.78 µg/mL	–	–	–	0.776	0.78	0.638
S. aureus DSM 20231, partner 1.56 µg/mL	–	–	–	0.752	0.699	0.582
S. aureus Newman, partner 0.39 µg/mL	–	–	–	0.79	0.651	0.552
S. aureus Newman, partner 0.78 µg/mL	–	–	–	0.766	0.704	0.604
S. aureus Newman, partner 1.56 µg/mL	–	–	–	0.764	0.662	0.494
S. pneumoniae D39V, partner 1 µg/mL	0.986	0.968	0.867	–	–	–
S. pneumoniae D39V, partner 2 µg/mL	0.935	0.915	0.781	–	–	–
S. pneumoniae D39V, partner 4 µg/mL	0.798	0.775	0.654	–	–	–

fitness, one replicate
Details	first compound 0.002 µg/mL	first compound 0.004 µg/mL	first compound 0.008 µg/mL	first compound 0.0156 µg/mL	first compound 0.0312 µg/mL	first compound 0.0625 µg/mL
S. aureus DSM 20231, partner 3.12 µg/mL	–	–	–	0.807	0.594	0.363
S. aureus DSM 20231, partner 6.24 µg/mL	–	–	–	0.27	0.219	0.114
S. pneumoniae D39V, partner 1 µg/mL	0.798	0.786	0.685	–	–	–
S. pneumoniae D39V, partner 2 µg/mL	0.783	0.762	0.692	–	–	–
S. pneumoniae D39V, partner 4 µg/mL	0.628	0.612	0.541	–	–	–

CO[C@@]12[C@H](COC(N)=O)C3=C(C(=O)C(C)=C(N)C3=O)N1C[C@@H]1N[C@@H]12 [Mitomycin C] + C[n+]1ccc(-c2cc[n+](C)cc2)cc1 [Paraquat]
fitness
Details	first compound 0.001075 µg/mL	first compound 0.00215 µg/mL	first compound 0.0043 µg/mL	first compound 0.0156 µg/mL	first compound 0.0312 µg/mL	first compound 0.0625 µg/mL
S. aureus DSM 20231, partner 1.25 µg/mL	–	–	–	0.717	0.684	0.563
S. aureus DSM 20231, partner 2.5 µg/mL	–	–	–	0.691	0.678	0.577
S. aureus DSM 20231, partner 5 µg/mL	–	–	–	0.668	0.67	0.557
S. aureus Newman, partner 1.25 µg/mL	–	–	–	0.666	0.675	0.527
S. aureus Newman, partner 2.5 µg/mL	–	–	–	0.675	0.651	0.527
S. aureus Newman, partner 5 µg/mL	–	–	–	0.696	0.676	0.467
S. pneumoniae D39V, partner 1.5 µg/mL	0.955	0.94	0.862	–	–	–
S. pneumoniae D39V, partner 3 µg/mL	0.954	0.911	0.842	–	–	–
S. pneumoniae D39V, partner 6 µg/mL	0.961	0.919	0.783	–	–	–

fitness, S. pneumoniae D39V, one replicate
Details	first compound 0.002 µg/mL	first compound 0.004 µg/mL	first compound 0.008 µg/mL
partner 1.5 µg/mL	0.852	0.77	0.553
partner 3 µg/mL	0.862	0.781	0.592
partner 6 µg/mL	0.867	0.778	0.558
